According to patent publication US8461349B2, “Fungicidal active substance combinations containing trifloxystrobin” (Bayer CropScience AG, priority 2001, dated 2013):
Values joined by “and” are separate entries in the source; they are usually repeats but may differ in a detail not shown here. Equal entries are not always repeated.

Tests used:
Format in all cases: in vivo
[1] = test system: cotton aphid (Aphis gossypii); test: Aphis gossypii test (cotton leaves dipped)
Experimental: (§1) • Solvent: 7 parts by weight of dimethylformamide • Emulsifier: 2 parts by weight of alkylaryl polyglycol ether
To produce a suitable preparation of active compound, 1 part by weight of active compound is mixed with the stated amounts of solvent and emulsifier, and the concentrate is diluted with water to the desired concentrations.
Cotton leaves (Gossypium hirsutum) which are heavily infested by the cotton aphid (Aphis gossypii) are treated by being dipped into the preparation of active compound of the desired concentration.
(§2) After the desired period of time, the kill in % is determined. 100% means that all aphids have been killed; 0% means that none of the aphids have been killed. The kill rates that have been determined are evaluated using Colby's formula.

[2] = test system: caterpillars of the army worm (Spodoptera frugiperda); test: Spodoptera frugiperda test (cabbage leaves dipped)
Experimental: as §1
(§3) To produce a suitable preparation of active compound, 1 part by weight of active compound is mixed with the stated amounts of solvent and emulsifier, and the concentrate is diluted with emulsifier-containing water to the desired concentration.
Cabbage leaves (Brassica oleracea) are treated by being dipped into the preparation of active compound of the desired concentration and are populated with caterpillars of the army worm (Spodoptera frugiperda) while the leaves are still moist.
(§4) After the desired period of time, the kill in % is determined. 100% means that all caterpillars have been killed; 0% means that none of the caterpillars have been killed. The kill rates that have been determined are evaluated using Colby's formula.

[3] = test system: larvae of the mustard beetle (Phaedon cochleariae); test: Phaedon larvae test (cabbage leaves dipped)
Experimental: as §1, §3
Cabbage leaves (Brassica oleracea) are treated by being dipped into the preparation of active compound of the desired concentration and are populated with larvae of the mustard beetle (Phaedon cochleariae) while the leaves are still moist.
After the desired period of time, the kill in % is determined. 100% means that all beetle larvae have been killed; 0% means that none of the beetle larvae have been killed. The kill rates that have been determined are evaluated using Colby's formula.

[4] = test system: green peach aphid (Myzus persicae); test: Myzus test (cabbage leaves dipped)
Experimental: as §1, §3
Cabbage leaves (Brassica oleracea) which are heavily infested by the green peach aphid (Myzus persicae) are treated by being dipped into the preparation of active compound of the desired concentration.
as §2

[5] = test system: caterpillars of the diamond back moth (Plutella xylostella, sensitive strain); test: Plutella test (cabbage leaves dipped)
Experimental: as §1, §3
Cabbage leaves (Brassica oleracea) are treated by being dipped into the preparation of active compound of the desired concentration and are populated with caterpillars of the diamond back moth (Plutella xylostella, sensitive strain) while the leaves are still moist.
as §4

Compound	Kill rate in % after 6^d ([1]; 0.8 ppm) [%]	Kill rate in % after 3^d ([2]; 4 ppm) [%]	Kill rate in % after 3^d ([3]; 4 ppm) [%]	Kill rate in % after 6^d ([4]; 0.8 ppm) [%]	Kill rate in % after 6^d ([4]; 0.16 ppm) [%]	Kill rate in % after 6^d ([4]; 4 ppm) [%]	also measured
N#C/N=C1\SCCN1Cc1ccc(Cl)nc1 [thiacloprid (III)]	55	0	10	85			
C/C(=N\C#N)N(C)Cc1ccc(Cl)nc1 [acetamiprid (IV)]		65	5		20		Kill rate in % after 1^d ([1]; 0.16 ppm): 25%; Kill rate in % after 3^d ([5]; 4 ppm): 0%
CN/C(=N\[N+](=O)[O-])NCC1CCOC1 (stereo not shown) [dinotefuran (VIII)]	0		5			0	Kill rate in % after 6^d ([2]; 4 ppm): 70%
CON=C(C(=O)OC)c1ccccc1CO/N=C(\C)c1cccc(C(F)(F)F)c1 [trifloxystrobin (I), methyl 2-[α-{[(α-methyl-3-trifluoromethylbenzyl)imino]oxy}-o-tolyl]-glyoxylate O-methyl oxime]						0	Kill rate in % after 1^d ([1]; 4 ppm): 0%; Kill rate in % after 6^d ([1]; 4 ppm): 0%; Kill rate in % after 1^d ([1]; 20 ppm): 0%; Kill rate in % after 6^d ([1]; 20 ppm): 0%; Kill rate in % after 3^d ([2]; 100 ppm): 0% and 5%; Kill rate in % after 6^d ([2]; 100 ppm): 0%; Kill rate in % after 3^d ([3]; 100 ppm): 0% and 5%; Kill rate in % after 6^d ([4]; 20 ppm): 0%; Kill rate in % after 6^d ([4]; 100 ppm): 10%; Kill rate in % after 3^d ([5]; 100 ppm): 0%
O=[N+]([O-])/N=C1\NCCN1Cc1ccc(Cl)nc1 [imidacloprid (II), 1-[(6-chloro-3-pyridinyl)methyl]-N-nitro-2-imidazolidineimine]		0	35		25		Kill rate in % after 6^d ([1]; 0.16 ppm): 25%
CN/C(=N\[N+](=O)[O-])NCc1cnc(Cl)s1 [chlothianidin (VII)]		85	30	95			
